Source: paper PMC10541456, “A phase I, single‐center, open‐label study to investigate the absorption, distribution, metabolism and excretion of encorafenib following a single oral dose of 100 mg [ ^14C] encorafenib in healthy male subjects” (Pharmacology Research & Perspectives, 2023)
“And” between values parts separate entries of the source, which are not always exact repeats. Equal entries are not always repeated. Where two headings read alike, the source gives them in different places.

Legend:
[1] = Safety and tolerability in healthy male subjects; assay type: in vivo, human
Experimental: (§1) This study (ClinicalTrials.gov ID, NCT01436656) was a single‐center, open‐label study to investigate the ADME of encorafenib after a single oral administration of 100 mg (90 μCi) [^14C] encorafenib in healthy male subjects. A total of four evaluable subjects were enrolled and dosed. The study consisted of a screening period, a baseline period, a single dose treatment and a 96 h post‐dose observation period. A safety follow‐up assessment by phone was conducted 30 days after administration of 100 mg (90 μCi) [^14C] encorafenib. Subjects completed an overnight fast of at least 10 h prior to administration of the study drug. Subjects were discharged from the clinical site provided that the subject's recovery of [^14C] encorafenib‐related radioactivity was at least 90% of the administered dose. The study duration period could be prolonged if the subject's recovery of related radioactivity was less than 90% by the fifth‐day post‐treatment or the subject had two consecutive 24‐h combined urine and fecal collections yielding ≥1% of dose.

[2] = Plasma PK of non-radiolabeled encorafenib; assay type: in vivo, human; details: for Vd/F: read-out: Vz/F
[3] = set-up: method as in earlier work; details: cited from earlier work
[4] = Mass balance: excretion of radioactivity in urine and feces (LSC); assay type: in vivo, human
Experimental: as §1
Venous blood samples (18 mL/time point) were collected by either direct venipuncture or from an indwelling cannula inserted into a vein of the forearm into tubes containing potassium ethylene diamine tetra acetic acid (K2‐EDTA) at the following times for metabolite characterization, total radioactivity and parent drug analysis: Pre‐dose, 0.5, 1, 1.5, 2, 3, 4, 6, 8, 12, 24, 48, 72, 96, 120 and 144 h post‐dose. Urine samples were collected into pre‐weighed, uniquely labeled containers pre‐dose (before drug administration) and at the following intervals: 0–4, 4–8, 8–24, 24–48, 48–72, 72–96, 96–120 and 120–144 h post‐dose. Feces samples were collected quantitatively into uniquely labeled, polypropylene containers pre‐dose (before drug administration) and individually until 144 h post‐dose. Urine and feces samples were frozen at −20°C and blood samples at −70°C.
Analysis of total radioactivity data in plasma, blood, feces, and urine was performed by Covance Laboratories Inc. All sample combustions were performed in a Model 307 Sample Oxidizer (Packard Instrument Company) and the resulting ^14CO2 was trapped in a mixture of Perma Fluor™ (Perkin Elmer) and Carbo Sorb® (Perkin Elmer). Oxidation efficiency was evaluated on each day of sample combustion by analyzing a commercial radiolabeled standard both directly in a scintillation cocktail and by oxidation. […] EcoLite™(+) scintillation cocktail was used for samples analyzed directly. All samples were analyzed for radioactivity in Model 2900TR or 2910TR liquid scintillation counters (Packard Instrument Company) for at least 5 min or 100 000 counts. […] All samples were analyzed in duplicate or triplicate, as applicable, if sample size allowed. If results from sample replicates (calculated as ^14C disintegrations per minute (dpm)/g sample) differed by more than 10% from the mean value and sample aliquots had radioactivity greater than 200 dpm, the sample was re‐homogenized or remixed and reanalyzed (if the sample size permitted).
Blood samples were mixed and duplicate aliquots of each (approximately 0.4 g) were combusted and analyzed by liquid scintillation […]. Plasma and urine samples were separately mixed and duplicate weighed aliquots of each (approximately 0.4 g for plasma and 0.2 g for urine) were analyzed directly by LSC. […] Feces samples were analyzed individually (samples were not combined by interval) and the weight of each individual sample was recorded. […]

[5] = single 100 mg oral dose, 4 healthy male subjects
[6] = human, plasma, oral, 100 mg, GeoMean (GeoCV%)
[7] = human, plasma, oral, 100 mg, Mean (SD)
[8] = human, plasma, oral, 100 mg, Median (Minimum–Maximum)
[9] = plasma, Median (Minimum–Maximum)
[10] = mean, through last collection interval (144 h)

COC(=O)N[C@@H](C)CNc1nccc(-c2cn(C(C)C)nc2-c2cc(Cl)cc(NS(C)(=O)=O)c2F)n1 [encorafenib]
Grade 2, 3 or 4 adverse events ([1]; single 100 mg oral dose): No grade 2, 3 or 4 AEs were reported
Subjects with AEs suspected to be related to the study drug [1, 5]: 50.0%
Subjects with at least one adverse event [1, 5]: 75.0%
Laboratory evaluations, vital signs, ECG ([1]; single-dose administration): no significant abnormalities
Overall safety and tolerability ([1]; single-dose administration): safe and well‐tolerated
Variability of apparent oral clearance, this study ([2]; healthy subjects, 100 mg): 37%
AUC(0-t) ([2]; human, plasma, oral, 100 mg, plasma, GeoMean (GeoCV%), read-out: AUC0-24): 3680 ng·h/mL
AUC(0-t) ([2]; human, plasma, oral, 100 mg, plasma, GeoMean (GeoCV%), read-out: AUClast): 3720 ng·h/mL
AUC(0-t) ([2]; human, plasma, oral, 100 mg, plasma, Mean (SD), read-out: AUC0-24): 3850 ng·h/mL
AUC(0-t) ([2]; human, plasma, oral, 100 mg, plasma, Mean (SD), read-out: AUClast): 3910 ng·h/mL
Vd/F ([2]; human, plasma, oral, 100 mg, plasma, Mean (SD)): 235 L
AUC(0-t) ([2]; human, plasma, oral, 100 mg, plasma, Median (Minimum–Maximum), read-out: AUC0-24): 3570 ng·h/mL
AUC(0-t) ([2]; human, plasma, oral, 100 mg, plasma, Median (Minimum–Maximum), read-out: AUClast): 3600 ng·h/mL
Vd/F ([2]; human, plasma, oral, 100 mg, plasma, Median (Minimum–Maximum)): 228 L
AUC(0-inf) [2, 6]: 3750 ng·h/mL
Cmax [2, 6]: 1040 ng/mL
half-life [2, 6]: 5.88 h
Cmax [2, 7]: 1050 ng/mL
half-life [2, 7]: 6.11 h
AUC(0-inf) [2, 8]: 3610 ng·h/mL
Cmax [2, 8]: 1080 ng/mL
half-life [2, 8]: 6.32 h
Vd/F ([2]; male, human, plasma, oral, 100 mg, plasma, GeoMean (GeoCV%)): ~226 L
Tmax ([2]; male, human, plasma, oral, 100 mg, plasma, Median (Minimum–Maximum), read-out: Tmax): 0.77 h
AUC(0-inf) ([2]; male, human, plasma, po, 100 mg, Mean (SD), n=4, 100 mg oral): 3940 ng·h/mL
Vz/F ([2]; plasma, GeoMean (GeoCV%)): 226 (32.7) L
CL/F ([2]; plasma, Mean (SD)): 27.9 (9.15) L/h
CL/F [2, 9]: 28.4 (17.1–37.6) L/h
Tmax [2, 9]: 0.767 (0.500–1.00) h
Dose proportionality of systemic exposure ([3]; after a single dose, dose range 50 mg to 700 mg): dose‐proportional
Variability of apparent oral clearance, encorafenib labeling [3]: 54%
Fraction of oral absorption (Fa) ([4]; estimated from urine radioactivity plus fecal metabolites, assumes stability in feces and GI tract): ≥ 86%
Mass balance (total radioactivity recovered) ([4]; mean ± SD of four subjects, by end of Day 6 (144 h post-dose)): 94.5 ± 0.63 % dose
Radioactivity recovered in feces [4, 10]: 47.2 % of the dose
Radioactivity recovered in urine [4, 10]: 47.2 % of the dose and 47 % of the dose
Overall recovery of radioactivity in the excreta, in all four subjects ([4]; single oral 100 mg [14C] encorafenib, urine + feces, bound holding for each subject): ≥ 93.9% and > 90%
